Assay results from patent US10597388B2, “Pyridazinone herbicides” (FMC CORPORATION, priority 2014, dated 2020).

Experiments:
Assay in all cases: Test C greenhouse herbicide test, pre- and postemergence
Format in all cases: in vivo
[1] = test system: barnyardgrass (Echinochloa crus-galli)
Procedure, shortened: (§1)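 Greenhouse pots; pre-em on seeded loam:sand blend, post-em on 2–18 cm plants (1–4 leaf) in sphagnum peat/vermiculite medium. Formulation: non-phytotoxic solvent + surfactant. Read-out: visual % control (0–100) vs controls at 13–15 d.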

[2] = test system: blackgrass (Alopecurus myosuroides)
Procedure, shortened: as §1

[3] = test system: corn (Zea mays)
Procedure, shortened: as §1

[4] = test system: crabgrass, large (large crabgrass, Digitaria sanguinalis)
Procedure, shortened: as §1

[5] = test system: foxtail, giant (giant foxtail, Setaria faberii)
Procedure, shortened: as §1

[6] = test system: galium (catchweed bedstraw, Galium aparine)
Procedure, shortened: as §1

[7] = test system: lambsquarters (Chenopodium album)
Procedure, shortened: as §1

[8] = test system: morningglory (Ipomoea coccinea)
Procedure, shortened: as §1

[9] = test system: oilseed rape (Brassica napus)
Procedure, shortened: as §1

[10] = test system: pigweed (Amaranthus retroflexus)
Procedure, shortened: as §1

[11] = test system: ragweed (common ragweed, Ambrosia elatior)
Procedure, shortened: as §1

[12] = test system: ryegrass, Italian (Italian ryegrass, Lolium multiflorum)
Procedure, shortened: as §1

[13] = test system: velvetleaf (Abutilon theophrasti)
Procedure, shortened: as §1

[14] = test system: waterhemp (common waterhemp, Amaranthus rudis)
Procedure, shortened: as §1

[15] = test system: wheat (winter wheat, Triticum aestivum)
Procedure, shortened: as §1

[16] = Postemergence, 31 g ai/ha, 0 to 100 scale (0 no effect, 100 complete control)
[17] = Postemergence, 125 g ai/ha, scale 0 to 100, 0 is no effect, 100 is complete control
[18] = Postemergence, 250 g ai/ha, scale 0 to 100, 0 no effect, 100 complete control, 13 to 15 d
[19] = Preemergence, 31 g ai/ha, scale 0 to 100, 0 is no effect, 100 is complete control
[20] = Preemergence, 62 g ai/ha, scale 0 to 100, 0 is no effect, 100 is complete control
[21] = Preemergence, 125 g ai/ha, scale 0 to 100, 0 is no effect, 100 is complete control
[22] = Preemergence, 250 g ai/ha, scale 0 to 100, 0 no effect, 100 complete control
[23] = postemergence, 62 g ai/ha, scale 0 to 100, 0 no effect, 100 complete control

CCc1oc2ccc(C)cc2c1-c1c(O)c(C)nn(C)c1=O [Compound 10, 4-(2-ethyl-5-methyl-3-benzofuranyl)-5-hydroxy-2,6-dimethyl-3(2H)-pyridazinone]
60: Foxtail, Giant plant response rating [5, 23] | Pigweed plant response rating [10, 23]
80: Lambsquarters plant response rating [7, 23] | Ryegrass, Italian plant response rating [12, 22]
85: Plant response rating, Galium [6, 18]
10: Plant response rating, Blackgrass [2, 17] | Crabgrass, Large plant response rating [4, 16] | Plant response rating, Pigweed [10, 21] | Plant response rating, Velvetleaf [13, 21]
0: Plant response rating, Barnyardgrass [1, 19] | Blackgrass plant response rating [2, 16] | Plant response rating, Blackgrass [2, 19] | Plant response rating, Blackgrass [2, 20] | Plant response rating, Blackgrass [2, 21] | Blackgrass plant response rating [2, 22] | Blackgrass plant response rating [2, 23] | Corn plant response rating [3, 16] | Plant response rating, Corn [3, 19] | Plant response rating, Corn [3, 20] | Plant response rating, Corn [3, 21] | Corn plant response rating [3, 23] | Plant response rating, Crabgrass, Large [4, 19] | Plant response rating, Crabgrass, Large [4, 20] | Plant response rating, Crabgrass, Large [4, 21] | Crabgrass, Large plant response rating [4, 22] | Plant response rating, Foxtail, Giant [5, 19] | Plant response rating, Foxtail, Giant [5, 20] | Plant response rating, Foxtail, Giant [5, 21] | Foxtail, Giant plant response rating [5, 22] | Plant response rating, Galium [6, 19] | Plant response rating, Lambsquarters [7, 19] | Plant response rating, Lambsquarters [7, 20] | Plant response rating, Morningglory [8, 19] | Plant response rating, Morningglory [8, 20] | Oilseed Rape plant response rating [9, 16] | Plant response rating, Oilseed Rape [9, 17] | Plant response rating, Oilseed Rape [9, 18] | Plant response rating, Oilseed Rape [9, 19] | Plant response rating, Oilseed Rape [9, 20] | Plant response rating, Oilseed Rape [9, 21] | Oilseed Rape plant response rating [9, 22] | Oilseed Rape plant response rating [9, 23] | Plant response rating, Pigweed [10, 19] | Plant response rating, Pigweed [10, 20] | Plant response rating, Ragweed [11, 19] | Plant response rating, Ragweed [11, 20] | Plant response rating, Ragweed [11, 21] | Plant response rating, Ryegrass, Italian [12, 19] | Plant response rating, Ryegrass, Italian [12, 20] | Plant response rating, Velvetleaf [13, 20] | Plant response rating, Waterhemp [14, 20] | Wheat plant response rating [15, 16] | Plant response rating, Wheat [15, 17] | Plant response rating, Wheat [15, 18] | Plant response rating, Wheat [15, 20] | Plant response rating, Wheat [15, 21] | Wheat plant response rating [15, 22] | Wheat plant response rating [15, 23]
20: Plant response rating, Ryegrass, Italian [12, 17]
30: Crabgrass, Large plant response rating [4, 23] | Lambsquarters plant response rating [7, 22] | Pigweed plant response rating [10, 22] | Ragweed plant response rating [11, 23]
50: Plant response rating, Foxtail, Giant [5, 17] | Galium plant response rating [6, 23] | Lambsquarters plant response rating [7, 16] | Velvetleaf plant response rating [13, 22] | Plant response rating, Waterhemp [14, 17]
25: Plant response rating, Morningglory [8, 21] | Plant response rating, Ryegrass, Italian [12, 21]
65: Plant response rating, Crabgrass, Large [4, 17] | Plant response rating, Lambsquarters [7, 17]
5: Plant response rating, Barnyardgrass [1, 20] | Plant response rating, Barnyardgrass [1, 21] | Barnyardgrass plant response rating [1, 22] | Plant response rating, Corn [3, 17] | Plant response rating, Corn [3, 18] | Corn plant response rating [3, 22] | Galium plant response rating [6, 16] | Plant response rating, Galium [6, 20] | Plant response rating, Galium [6, 21] | Ragweed plant response rating [11, 16] | Ragweed plant response rating [11, 22] | Ryegrass, Italian plant response rating [12, 16] | Ryegrass, Italian plant response rating [12, 23]
100: Plant response rating, Morningglory [8, 17] | Plant response rating, Morningglory [8, 18] | Plant response rating, Waterhemp [14, 21]
55: Morningglory plant response rating [8, 16] | Morningglory plant response rating [8, 22] | Pigweed plant response rating [10, 16] | Plant response rating, Ryegrass, Italian [12, 18]
70: Foxtail, Giant plant response rating [5, 16] | Plant response rating, Galium [6, 17] | Plant response rating, Pigweed [10, 17] | Plant response rating, Ragweed [11, 17] | Plant response rating, Velvetleaf [13, 18]
45: Galium plant response rating [6, 22] | Velvetleaf plant response rating [13, 23] | Waterhemp plant response rating [14, 23]
75: Plant response rating, Crabgrass, Large [4, 18]
90: Plant response rating, Barnyardgrass [1, 17] | Barnyardgrass plant response rating [1, 23] | Plant response rating, Foxtail, Giant [5, 18] | Morningglory plant response rating [8, 23] | Plant response rating, Waterhemp [14, 18] | Waterhemp plant response rating [14, 22]
95: Plant response rating, Pigweed [10, 18]
15: Plant response rating, Blackgrass [2, 18]
98: Plant response rating, Barnyardgrass [1, 18] | Plant response rating, Lambsquarters [7, 18] | Plant response rating, Ragweed [11, 18]
35: Barnyardgrass plant response rating [1, 16]
40: Velvetleaf plant response rating [13, 16] | Plant response rating, Velvetleaf [13, 17] | Waterhemp plant response rating [14, 16]
